Data taken from patent US20180008563A1 (priority 2015, published 2018).
Like-named read-outs stand apart in the source and are kept apart here.

Tests used:
epidemic diarrhea = details: diseased piglets, oral, a certain dose; cited from earlier work
PEDV = details: Kim et al., Virus Research (2013); cited from earlier work
rotavirus diarrhea = experiment: Treatment of rotavirus diarrhea; assay type: in vivo, pigs
[1] = system: pseudorabies viral diarrhea; assay type: in vivo, pigs
[2] = system: porcine epidemic diarrhea; experiment: Prevention of porcine epidemic diarrhea of weaned piglets, care pigs and finishing pigs; assay type: in vivo; details: taurine 200 mg per kilogram of body weight per day
Protocol: Prevention of the porcine epidemic diarrhea on the weaned piglets, the care pigs and the finishing pigs with taurine was implemented by orally administering taurine to a swine herd, wherein the administration may be carried out by means of feeding in water or mixed feeding.
a preventative administration was carried out during an epidemic period of the disease, or in autumn, winter and spring when the temperature was low and changed greatly, that is, in the season when the porcine epidemic diarrhea frequently occurs. Generally, the administration can be carried out for a long-term. In consideration of the use-cost, the drug administration time is preferably 3-30 days, and more preferably, 7-14 days. The effect is subject to an obvious time-effect relationship.
0.005-2% by weight of taurine was added in daily-drinking water for the pigs to drink freely; or taurine accounting for 0.01-5% by weight of the feed was added thereto, which is equivalent to a dosage of 50-10000 mg per kilogram of body weight per day of taurine, and the administration was in a single dose or in divided doses. The effect is subject to an obvious quantity-effect relationship.
120 healthy weaned piglets, 120 healthy care pigs and 120 healthy finishing pigs were selected and randomly divided into two groups equivalently. Control group: conventional feeding; experimental group: conventional feeding+taurine (the dosage of taurine was 200 mg per kilogram of body weight per day).
I. The pharmaceutical composition according to Embodiment 6 was used for the prevention of porcine epidemic diarrhea of the newborn piglets, weaned piglets, care pigs and finishing pigs. Particularly, a mode of the administration for the newborn piglets was the same as the method in Embodiment 1, i.e. each pregnant sow was administered with 50 g of the pharmaceutical composition in Embodiment 6 per day, and the administration was in a single dose or in divided doses. […]

[3] = system: porcine epidemic diarrhea; experiment: Treatment of porcine epidemic diarrhea of weaned piglets, care pigs and finishing pigs; assay type: in vivo; details: taurine 300 mg per kilogram of body weight per day
Protocol: Treatment of the porcine epidemic diarrhea on the weaned piglets, the care pigs and the finishing pigs with taurine was implemented by orally administering taurine to the pigs, wherein the administration may be carried out by means of feeding in water or mixed feeding.
the administration was carried out from the day of occurrence of the disease, and in consideration of the use-cost, the drug administration time is preferably 3-30 days, and more preferably 7-14 days. The effect is subject to an obvious time-effect relationship.
0.1-2% by weight of taurine was added in the daily-drinking water for the pigs to drink freely; or taurine accounting for 0.2-5% of the feed was added thereto, which is equivalent to a dosage of 100-10000 mg per kilogram of body weight per day of taurine, and the administration was in a single dose or in divided doses. The effect is subject to an obvious quantity-effect relationship.
60 diseased weaned piglets, 60 diseased care pigs and 60 diseased finishing pigs were selected, and were randomly divided into two groups equivalently. Control group: conventional supportive therapy (fluid infusion+antibiotic therapy+atropine sulfate); experimental group: treatment with taurine (the dosage of taurine was 300 mg per kilogram of body weight per day).
II. The pharmaceutical composition according to Embodiment 6 was used for the treatment of porcine epidemic diarrhea of the newborn piglets, weaned piglets, care pigs and finishing pigs. A mode of the administration for the newborn piglets was the same as the method in Embodiment 2, i.e. the administration by drenching and/or mixed-feeding was carried out on the day when the disease occurred in the suckling piglets. The administration by drenching: a solution with a mass concentration of 5% was prepared from the pharmaceutical composition in Embodiment 6 with a dosage of 2-4 mL per time and it was taken 2-6 times per day. The administration by mixed-feeding: 4 g/L of the solution was drunk freely. […]

[4] = system: porcine epidemic diarrhea; experiment: Treatment of porcine epidemic diarrhea of newborn suckling piglets (piglets and lactating sows treated); assay type: in vivo, pigs; details: diseased newborn suckling piglets; taurine 100 g per sow per day, 0.2 g per piglet per day
Protocol: Treatment of the porcine epidemic diarrhea on newborn piglets with taurine was implemented by orally administering a taurine solution to diseased suckling piglets and administering taurine to lactating sows, that is, simultaneous treatment of both the suckling piglets and the lactating sows.
the administration by drenching/mixed-feeding was carried out on the day when the disease occurred in the suckling piglets, and a non-interrupted administration lasted for 3-10 days. Lactating sows: non-interrupted oral administration lasted for 5-10 days.
the administration by drenching or mixed-feeding was carried out on the day when the disease occurred in the suckling piglets. The administration by drenching: 2% taurine solution at a dosage of 1-5 mL per time and it was taken 2-6 times per day. The administration by mixed-feeding: 1-20 g/L of taurine solution was drunk freely. Lactating sows: each sow was administered with 5-500 g of taurine per day and the administration was in a single dose or in divided doses.
40 litters of diseased newborn suckling piglets and sows thereof were selected and randomly divided into two groups equivalently. Control group: conventional supportive therapy (fluid infusion+antibiotic therapy+atropine sulfate); experimental group: treatment with taurine.
II. […]

[5] = system: porcine transmissible gastroenteritis; assay type: in vivo, pigs
[6] = care pigs, taurine dosage as in Embodiment 4 (300 mg per kilogram of body weight per day)
[7] = newborn piglets, taurine dosage as in Embodiment 2 (100 g per sow per day, 0.2 g per piglet per day)
[8] = weaned piglets, taurine dosage as in Embodiment 4 (300 mg per kilogram of body weight per day)

For povidone iodine, the “improvement of survival rate” value (epidemic diarrhea) is listed as 5-10% and the “prognosis of survived suckling piglets” value (epidemic diarrhea) is listed as “unfavourable prognosis”.
In the case of NC(=O)c1ncn([C@@H]2O[C@H](CO)[C@@H](O)[C@H]2O)n1 [Ribavirin], the “inhibition of replication of PEDV” value (PEDV) is listed as “capable of inhibiting replication of PEDV”.
For NCCS(=O)(=O)O [taurine, β-aminoethanesulfonic acid], the Prognosis (rotavirus diarrhea; [6]) was “Good”, the Prognosis (rotavirus diarrhea; [7]) was “Good” and the Prognosis (rotavirus diarrhea; [8]) was “Good”. The Prognosis [1, 6] was “General”, the “treatment effect on the pseudorabies viral diarrhea” value ([1]; summary in text of Table 5) was “no treatment effect” and the Prognosis ([2]; care pigs) was “Excellent”. For the same molecule, the Prognosis ([2]; finishing pigs) was “Excellent”, the Prognosis ([2]; weaned piglets) was “Excellent” and the Prognosis ([3]; diseased care pigs) was “Good”. The Prognosis ([3]; diseased finishing pigs) was “Good”, the Prognosis ([3]; diseased weaned piglets) was “Good” and the Prognosis [4] was “Good”. The Prognosis [5, 6] was “Good”, the Prognosis ([5]; finishing pigs, taurine dosage as in Embodiment 4 (300 mg per kilogram of body weight per day)) was “Good” and the Prognosis [5, 7] was “Good”. The Prognosis [5, 8] was “Good”.
